In this assay the target is T1, human AR (androgen receptor) (Homo sapiens, UniProt P10275).
T1 construct: expressed in transfected cells; host or cells: HEK293 (lysate, 293-AR)
T1 sequence (P10275 1-920): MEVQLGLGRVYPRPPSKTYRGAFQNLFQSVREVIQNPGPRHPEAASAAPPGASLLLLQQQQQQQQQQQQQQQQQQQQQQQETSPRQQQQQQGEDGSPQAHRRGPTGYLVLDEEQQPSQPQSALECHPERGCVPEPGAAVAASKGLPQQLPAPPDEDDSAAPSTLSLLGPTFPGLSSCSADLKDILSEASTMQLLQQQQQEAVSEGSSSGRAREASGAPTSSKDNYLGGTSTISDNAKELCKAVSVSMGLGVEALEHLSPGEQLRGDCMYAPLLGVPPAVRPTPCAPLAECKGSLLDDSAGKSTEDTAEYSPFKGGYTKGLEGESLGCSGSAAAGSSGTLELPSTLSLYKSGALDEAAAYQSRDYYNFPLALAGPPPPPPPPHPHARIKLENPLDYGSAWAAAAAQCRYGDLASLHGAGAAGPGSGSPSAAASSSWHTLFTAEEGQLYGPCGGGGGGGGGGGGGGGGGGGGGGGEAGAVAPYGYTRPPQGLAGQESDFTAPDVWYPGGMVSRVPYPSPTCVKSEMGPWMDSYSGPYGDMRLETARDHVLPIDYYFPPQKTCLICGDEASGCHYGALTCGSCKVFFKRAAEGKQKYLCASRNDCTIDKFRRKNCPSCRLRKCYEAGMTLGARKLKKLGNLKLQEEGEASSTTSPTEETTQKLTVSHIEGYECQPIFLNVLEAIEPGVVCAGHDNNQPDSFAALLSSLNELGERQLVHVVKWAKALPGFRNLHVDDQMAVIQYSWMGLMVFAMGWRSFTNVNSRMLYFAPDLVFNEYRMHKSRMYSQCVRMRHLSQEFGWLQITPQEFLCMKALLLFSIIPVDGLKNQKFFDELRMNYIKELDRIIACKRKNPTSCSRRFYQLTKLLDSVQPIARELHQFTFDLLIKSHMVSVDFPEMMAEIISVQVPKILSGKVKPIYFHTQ
The assay can be described thus: Steroid hormone nuclear receptor binding assay, AR. Particulars: HEK293 lysate overexpressing human AR, [3H]-methyltrienolone. Here is the method:
Cell lysates from human embryonic kidney HEK293 cells overexpressing human MR (mineralocorticoid receptor), GR (glucocorticoid receptor), AR (androgen receptor), or PR (progesterone receptor) are used for receptor-ligand competition binding assays to determine Ki values. Typical procedures are provided below
Briefly, steroid receptor competition binding assays are run in a buffer containing 20 mM HEPES buffer (pH=7.6), 0.2 mM EDTA, 75 mM NaCl, 1.5 mM MgCl2, 20% glycerol, 20 mM sodium molybdate, 0.2 mM DTT (dithiothreitol), 20 μg/mL aprotinin and 20 μg/mL leupeptin (assay buffer). […] Assays are typically run in 96-well format. Competing test compounds are added at various concentrations ranging from about 0.01 nM to 10 μM. Non-specific binding is determined in the presence of 500 nM aldosterone for MR binding, 500 nM dexamethasone for GR binding, or 500 nM methyltrienolone for AR and PR binding. The binding reactions (140 μL) are incubated overnight at 4° C., then 70 μL of cold charcoal-dextran buffer (containing per 50 mL of assay buffer, 0.75 g of charcoal and 0.25 g of dextran) is added to each reaction. […] After an incubation of 2 hours, plates are read in a Wallac Microbeta counter.
The Kd for [^3H]-aldosterone for MR binding, [^3H]-dexamethasone for GR binding, [^3H]-methyltrienolone for AR binding, or [^3H]-methyltrienolone for PR binding, is determined by saturation binding. […]

For `CC(C)OC(=O)N[C@H]1Cc2c(n(C[C@H]3OCC[C@@H]3O)c3ccc(C#N)cc23)C1` [compound of Formula (I), [(S)-7-Cyano-4-((2R,3S)-3-hydroxytetrahydrofuran-2-ylmethyl)-1,2,3,4-tetrahydrocyclopenta[b]indol-2-yl]-carbamic acid isopropyl ester], the Ki is approximately 10 nM.

What is called Ki is a measure of affinity in units of concentration, obtained from inhibition or displacement. Lower therefore signals higher affinity.

The record behind these values is patent US8183388B2, “Androgen receptor modulator and uses thereof” (Eli Lilly and Company, priority 2009, dated 2012).
